Earlier results in patent US20050074494A1, “Itraconazole immediate release formulation” (priority 2003, published 2005).

## CCC(C)n1ncn(-c2ccc(N3CCN(c4ccc(OCC5COC(Cn6cncn6)(c6ccc(Cl)cc6Cl)O5)cc4)CC3)cc2)c1=O (stereo not drawn) [Itraconazole, 4-[4-[4-[4-[[2-(2,4-dichlorophenyl)-2-(1H-1,2,4-triazol-1-ylmethyl)-1,3-dioxolan-4-yl]methoxy]phenyl]-1-piperazinyl]phenyl]-2,4-dihydro-2-(1-methylpropyl)-3H-1,2,4-triazol-3-one]
alcohols
  solubility in alcohols: very slightly soluble
dichloromethane
  solubility in dichloromethane: freely soluble
water
  solubility in water: insoluble
